Results from US6534524B1, “Indazole compounds and pharmaceutical compositions for inhibiting protein kinases, and methods for their use” (Agouron Pharmaceuticals, Inc., priority 1999, dated 2003).
Like-named read-outs stand apart in the source and are kept apart here.

Test system: human umbilical vein endothelial cells (HUVEC)
Test: HUVEC proliferation assay (VEGF-stimulated, MTT);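 as to % inhibition of the proliferation of HUVEC: relative to VEGF-stimulated control minus starvation-medium baseline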
Assay type: cell-based
Conditions: for % inhibition: Library III, HUVEC proliferation, nominal concentration of 0.5 nM; for % inhibition / % inhibition of the proliferation of HUVEC: crude reaction mixtures
[1] = Homo sapiens, HUVEC, + albumin, read-out: HUVEC + albumin IC50
[2] = Library II, Y=S, 0.5 mM (column head; text: nominal 0.5 nM)
[3] = Library I, Y = CO, nominal concentration of 10 nM
[4] = Library I, Y = NH, nominal concentration of 10 nM
[5] = Library I, Y = O, nominal concentration of 10 nM
[6] = Library II, Y=S, 2 mM (column head; text: nominal 2 nM)

O=C(Nc1cc(O)c2ccccc2n1)c1ccccc1Sc1ccc2c(/C=C/c3ccccn3)n[nH]c2c1
% inhibition: 4%

O=C(Nc1ccccc1F)c1ccccc1Sc1ccc2c(/C=C/c3ccccn3)n[nH]c2c1
% inhibition: 17%

C[n+]1ccc(NC(=O)c2ccccc2Sc2ccc3c(/C=C/c4ccccn4)n[nH]c3c2)cc1
% inhibition: 0%

N#Cc1nc(NC(=O)c2ccccc2Sc2ccc3c(/C=C/c4ccccn4)n[nH]c3c2)[nH]c1C#N
% inhibition: −28%

N#Cc1[nH]cnc1NC(=O)c1ccccc1Sc1ccc2c(/C=C/c3ccccn3)n[nH]c2c1
% inhibition: −13%

CC(C)(C)c1cc(NC(=O)c2ccccc2Sc2ccc3c(/C=C/c4ccccn4)n[nH]c3c2)n[nH]1
% inhibition: −21%

N/C(=N\O)c1[nH]cnc1NC(=O)c1ccccc1Sc1ccc2c(/C=C/c3ccccn3)n[nH]c2c1
% inhibition: −15%

O=C(Nc1cc(Cl)nc(Cl)c1)c1ccccc1Sc1ccc2c(/C=C/c3ccccn3)n[nH]c2c1
% inhibition: 0%

O=C(NCCc1ccc(Cl)cc1)c1ccccc1Sc1ccc2c(/C=C/c3ccccn3)n[nH]c2c1
% inhibition: 0%

O=C(NC1CCCCC1O)c1ccccc1Sc1ccc2c(/C=C/c3ccccn3)n[nH]c2c1 (centres unmarked)
% inhibition: −6%

O=C(Nc1cc(O)nc(O)n1)c1ccccc1Sc1ccc2c(/C=C/c3ccccn3)n[nH]c2c1
% inhibition: 3%

Cc1nnc(NC(=O)c2ccccc2Sc2ccc3c(/C=C/c4ccccn4)n[nH]c3c2)nc1C
% inhibition: −20%

CCOC(=O)CNC(=O)c1ccccc1Sc1ccc2c(/C=C/c3ccccn3)n[nH]c2c1
% inhibition: −16%

C#CC1(NC(=O)c2ccccc2Sc2ccc3c(/C=C/c4ccccn4)n[nH]c3c2)CCCCC1
% inhibition: 3%

Cc1cnc(CNC(=O)c2ccccc2Sc2ccc3c(/C=C/c4ccccn4)n[nH]c3c2)cn1
% inhibition: 6%

O=C(NCCc1c[nH]c2ccccc12)c1ccccc1Sc1ccc2c(/C=C/c3ccccn3)n[nH]c2c1
% inhibition: 18%

CC(CO)(CO)NC(=O)c1ccccc1Sc1ccc2c(/C=C/c3ccccn3)n[nH]c2c1
% inhibition: −18%

COC(=O)c1ccc(C)c(NC(=O)c2ccccc2Sc2ccc3c(/C=C/c4ccccn4)n[nH]c3c2)c1
% inhibition: −9%

O=C(NCc1ccc2c(c1)CCO2)c1ccccc1Sc1ccc2c(/C=C/c3ccccn3)n[nH]c2c1
% inhibition: 14%

CSc1ccccc1NC(=O)c1ccccc1Sc1ccc2c(/C=C/c3ccccn3)n[nH]c2c1
% inhibition: −10%

CSc1ccc(NC(=O)c2ccccc2Sc2ccc3c(/C=C/c4ccccn4)n[nH]c3c2)cc1
% inhibition: −7%

O=C(Nc1ncccc1O)c1ccccc1Sc1ccc2c(/C=C/c3ccccn3)n[nH]c2c1
% inhibition: 4%

COc1cccc(NC(=O)c2ccccc2Sc2ccc3c(/C=C/c4ccccn4)n[nH]c3c2)c1
% inhibition: 11%

Cc1cc(NC(=O)c2ccccc2Sc2ccc3c(/C=C/c4ccccn4)n[nH]c3c2)n[nH]1
% inhibition: 11%

CSc1cccc(NC(=O)c2ccccc2Sc2ccc3c(/C=C/c4ccccn4)n[nH]c3c2)c1
% inhibition: 8%

CC(C)(C)NC(=O)c1ccccc1Sc1ccc2c(/C=C/c3ccccn3)n[nH]c2c1
% inhibition: 23%

O=C(NCCc1cccc(Cl)c1)c1ccccc1Sc1ccc2c(/C=C/c3ccccn3)n[nH]c2c1
% inhibition: 0%

O=C(NCc1ccc(F)cc1)c1ccccc1Sc1ccc2c(/C=C/c3ccccn3)n[nH]c2c1
% inhibition: 57%

O=C(NCc1cccc(Cl)c1)c1ccccc1Sc1ccc2c(/C=C/c3ccccn3)n[nH]c2c1
% inhibition: 24%

6-(3-Benzamidobenzoyl)-3-E-[N-(4H-1,2,4-triazol-4-yl)iminomethyl]-1H-indazole [Example 42(e)]
IC50 (+ albumin, read-out: HUVEC + albumin IC50): 0.095 µM

NC(=O)c1ccccc1Sc1ccc2c(/C=C/c3ccccn3)n[nH]c2c1 [Example 35(d), 6-(2-Carbamoylphenylsulfanyl)-3-E-[2-(pyridin-2-yl)ethenyl]-1H-indazole]
IC50 [1]: > 0.1 µM

CNCCNC(=O)c1ccccc1Sc1ccc2c(/C=C/c3ccccn3)n[nH]c2c1 [Example 35(gg), 6-[2-(2-(Methylamino)ethylcarbamoyl)phenylsulfanyl]-3-E-[2-(pyridin-2-yl)ethenyl]-1H-indazole]
IC50 [1]: > 0.1 µM

O=C(N/N=C/c1ccccn1)c1ccccc1Sc1ccc2c(/C=C/c3ccccn3)n[nH]c2c1 [Example 36(b)]
IC50 [1]: > 0.03 µM

O=C(N/N=C/C(F)(F)F)c1ccccc1Sc1ccc2c(/C=C/c3ccccn3)n[nH]c2c1 [Example 36(c)]
IC50 [1]: > 0.03 µM

CNC(=O)c1cccc(F)c1Sc1ccc2c(/C=C/c3ccccn3)n[nH]c2c1 [Example 37(d), 6-[6-Fluoro-2-(methylcarbamoyl)phenylsulfanyl]-3-E-[2-(pyridin-2-yl)ethenyl]-1H-indazole]
IC50 [1]: > 0.1 µM

O=C(Nc1cccc(C(=O)c2ccc3c(/C=C/c4ccccn4)n[nH]c3c2)c1)Oc1ccccc1 [Example 41(cc), 6-[3-(Phenoxyamindo)benzoyl]-3-E-[2-(pyridin-2-yl)ethenyl]-1H-indazole]
IC50 (Homo sapiens, HUVEC, read-out: HUVEC + albumin IC50): > 0.1 µM

CC(=O)Nc1cc(C(=O)c2ccc3c(/C=C/c4ccccn4)n[nH]c3c2)c(C)cc1C [Example 41(nn), 6-(5-Acetamido-2,4-dimethylbenzoyl)-3-E-[2-(pyridin-2-yl)ethenyl]-1H-indazole]
IC50 [1]: > 0.1 µM

Nc1cccc(C(=O)c2ccc3c(/C=N/n4cccc4)n[nH]c3c2)c1 [Example 44]
IC50 (Homo sapiens, HUVEC, read-out: HUVEC IC50): > 0.7 µM

NC(=O)c1ccccc1Sc1ccc2c(/C=C/c3ccccn3)n[nH]c2c1 [H-X1]
% inhibition of the proliferation of HUVEC [2]: 9%

O=C(NC1CCS(=O)(=O)C1)c1ccc2c(-c3nc4ccccc4[nH]3)n[nH]c2c1 (centres unmarked) [drawing 576]
% inhibition of the proliferation of HUVEC [3]: 47% | % inhibition of the proliferation of HUVEC [4]: 10% | % inhibition of the proliferation of HUVEC [5]: 17%

O=C(Nc1ccc2[nH]c(=O)[nH]c2c1)c1ccc2c(-c3nc4ccccc4[nH]3)n[nH]c2c1 [drawing 582]
% inhibition of the proliferation of HUVEC [3]: 42% | % inhibition of the proliferation of HUVEC [4]: 6% | % inhibition of the proliferation of HUVEC [5]: 13%

O=C(Nc1ccc(O)cc1)c1ccc2c(-c3nc4ccccc4[nH]3)n[nH]c2c1 [drawing 585]
% inhibition of the proliferation of HUVEC [3]: 33% | % inhibition of the proliferation of HUVEC [4]: 3% | % inhibition of the proliferation of HUVEC [5]: 32%

O=C(NC1CC1)c1ccc2c(-c3nc4ccccc4[nH]3)n[nH]c2c1 [drawing 587]
% inhibition of the proliferation of HUVEC [3]: 20% | % inhibition of the proliferation of HUVEC [4]: 0% | % inhibition of the proliferation of HUVEC [5]: 43%

O=C(Nc1cnccn1)c1ccc2c(-c3nc4ccccc4[nH]3)n[nH]c2c1 [drawing 595]
% inhibition of the proliferation of HUVEC [3]: −11% | % inhibition of the proliferation of HUVEC [4]: −7% | % inhibition of the proliferation of HUVEC [5]: 52%

O=C(Nc1ncnc2[nH]cnc12)c1ccc2c(-c3nc4ccccc4[nH]3)n[nH]c2c1 [drawing 600]
% inhibition of the proliferation of HUVEC [3]: 27% | % inhibition of the proliferation of HUVEC [4]: −9% | % inhibition of the proliferation of HUVEC [5]: 52%

COc1ccc(NC(=O)c2ccc3c(-c4nc5ccccc5[nH]4)n[nH]c3c2)cc1O [drawing 607]
% inhibition of the proliferation of HUVEC [2]: 19% | % inhibition of the proliferation of HUVEC [6]: 89%

COC(=O)c1ccc(NC(=O)c2ccc3c(-c4nc5ccccc5[nH]4)n[nH]c3c2)o1 [drawing 608]
% inhibition of the proliferation of HUVEC [2]: 38% | % inhibition of the proliferation of HUVEC [6]: 2%

C=CCC(NC(=O)c1ccc2c(-c3nc4ccccc4[nH]3)n[nH]c2c1)c1ccccn1 (centres unmarked) [drawing 609]
% inhibition of the proliferation of HUVEC [2]: 37% | % inhibition of the proliferation of HUVEC [6]: 16%

COC(=O)c1cc(NC(=O)c2ccc3c(-c4nc5ccccc5[nH]4)n[nH]c3c2)ccc1O [drawing 610]
% inhibition of the proliferation of HUVEC [2]: 39% | % inhibition of the proliferation of HUVEC [6]: 15%

CC(C)CCNC(=O)c1ccccc1Sc1ccc2c(/C=C/c3ccccn3)n[nH]c2c1 [drawing 614]
% inhibition of the proliferation of HUVEC [2]: 14% | % inhibition of the proliferation of HUVEC [6]: 55%

O=C(NCC(F)(F)F)c1ccccc1Sc1ccc2c(/C=C/c3ccccn3)n[nH]c2c1 [drawing 626]
% inhibition of the proliferation of HUVEC [2]: 34% | % inhibition of the proliferation of HUVEC [6]: 61%

CNC(=O)c1ccccc1Sc1ccc2c(/C=C/c3ccccn3)n[nH]c2c1 [drawing 635]
% inhibition of the proliferation of HUVEC [2]: 8% | % inhibition of the proliferation of HUVEC [6]: 21%

CC(C)(C)CNC(=O)c1ccccc1Sc1ccc2c(/C=C/c3ccccn3)n[nH]c2c1 [drawing 687]
% inhibition of the proliferation of HUVEC [2]: 5% | % inhibition of the proliferation of HUVEC [6]: −6%

O=C(NCC1(O)CCCCC1)c1ccccc1Sc1ccc2c(/C=C/c3ccccn3)n[nH]c2c1 [drawing 688]
% inhibition of the proliferation of HUVEC [2]: 26% | % inhibition of the proliferation of HUVEC [6]: −19%

CCNC(=O)c1ccccc1Sc1ccc2c(/C=C/c3ccccn3)n[nH]c2c1 [drawing 696]
% inhibition of the proliferation of HUVEC [2]: 16% | % inhibition of the proliferation of HUVEC [6]: 17%

CC(C)(C)CNC(=O)c1ccccc1Sc1ccc2c(/C=C/c3ccccn3)n[nH]c2c1 [drawing 728]
% inhibition of the proliferation of HUVEC [2]: 19% | % inhibition of the proliferation of HUVEC [6]: 24%

CCOCCNC(=O)c1ccccc1Sc1ccc2c(/C=C/c3ccccn3)n[nH]c2c1 [drawing 732]
% inhibition of the proliferation of HUVEC [2]: 53% | % inhibition of the proliferation of HUVEC [6]: 75%

O=C(Nc1nccs1)c1ccccc1Sc1ccc2c(/C=C/c3ccccn3)n[nH]c2c1 [drawing 740]
% inhibition of the proliferation of HUVEC [2]: 33% | % inhibition of the proliferation of HUVEC [6]: 94%

O=C(NCC1CC1)c1ccccc1Sc1ccc2c(/C=C/c3ccccn3)n[nH]c2c1 [drawing 758]
% inhibition of the proliferation of HUVEC [2]: 35% | % inhibition of the proliferation of HUVEC [6]: 69%

O=C(NNc1ccccn1)c1ccccc1Sc1ccc2c(/C=C/c3ccccn3)n[nH]c2c1 [drawing 760]
% inhibition of the proliferation of HUVEC [2]: 32% | % inhibition of the proliferation of HUVEC [6]: 92%

Cc1ccc(CNC(=O)c2ccccc2Sc2ccc3c(/C=C/c4ccccn4)n[nH]c3c2)o1 [drawing 763]
% inhibition of the proliferation of HUVEC [2]: 56% | % inhibition of the proliferation of HUVEC [6]: 96%
